Laboratory results as given in ChEMBL document CHEMBL1201862, “PubChem BioAssay data set” (2004).
Activity calls are given as the source filed them.

Experiments:
[1] = target: E3 ubiquitin-protein ligase XIAP (Homo sapiens, UniProt P98170); assay: Counter Screen using XIAP-Bir3 for Chemical Antagonists of Bir1/2 domains of IAP-family anti-apoptotic proteins. [Related pubchem assays (depositor defined):AID1018, AID1449, AID1514, AID1638, AID1749, AID1750, AID488957, AID488963]
Ephrin type-A receptor 4 = Ephrin type-A receptor 4 (Mus musculus, UniProt Q03137); assay: EphA4 ligand-binding antagonists – biochemical, colorimetric, mouse EphA4, primary screen (AID 689); type: functional
[2] = target: G-protein coupled receptor 55 (Homo sapiens, UniProt Q9Y2T6); assay: selective activators of receptor GPR55 – imaging, U2OS cells, beta-arrestin-GFP redistribution, primary screen (AID 1961); type: functional
[3] = HEK-293T cell viability reduction – luminescence, B-cell screen hits, cytotoxicity control for BCR NF-kB inhibitor project, dose response (AID 489021); type: functional, cell-based;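 note: HEK-293T cells carrying an NF-kB luciferase reporter; cells exposed to compound for about 14 hours before viability readout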
[4] = (§1) Late stage assay provider results from the probe development effort to identify inhibitors of Protein Phosphatase Methylesterase 1 (PME-1): luminescence-based biochemical dose response assay to determine cytotoxicity of inhibitor compounds. [Related pubchem assays (depositor defined):AID2130, AID2143, AID2171, AID2174, AID2177, AID2232, AID2233, AID2291, AID2363, AID2365, AID2366, AID2368, AID2369, AID2371, AID463124, AID463130, AID463131, AID463132, AID463146, AID463149] Panel member name: Fetal Calf Serum; type: toxicity
[5] = as §1, with “Serum-free Media” for “Fetal Calf Serum”; type: toxicity

Ephrin type-A receptor 4, sequence (Q03137 whole entry): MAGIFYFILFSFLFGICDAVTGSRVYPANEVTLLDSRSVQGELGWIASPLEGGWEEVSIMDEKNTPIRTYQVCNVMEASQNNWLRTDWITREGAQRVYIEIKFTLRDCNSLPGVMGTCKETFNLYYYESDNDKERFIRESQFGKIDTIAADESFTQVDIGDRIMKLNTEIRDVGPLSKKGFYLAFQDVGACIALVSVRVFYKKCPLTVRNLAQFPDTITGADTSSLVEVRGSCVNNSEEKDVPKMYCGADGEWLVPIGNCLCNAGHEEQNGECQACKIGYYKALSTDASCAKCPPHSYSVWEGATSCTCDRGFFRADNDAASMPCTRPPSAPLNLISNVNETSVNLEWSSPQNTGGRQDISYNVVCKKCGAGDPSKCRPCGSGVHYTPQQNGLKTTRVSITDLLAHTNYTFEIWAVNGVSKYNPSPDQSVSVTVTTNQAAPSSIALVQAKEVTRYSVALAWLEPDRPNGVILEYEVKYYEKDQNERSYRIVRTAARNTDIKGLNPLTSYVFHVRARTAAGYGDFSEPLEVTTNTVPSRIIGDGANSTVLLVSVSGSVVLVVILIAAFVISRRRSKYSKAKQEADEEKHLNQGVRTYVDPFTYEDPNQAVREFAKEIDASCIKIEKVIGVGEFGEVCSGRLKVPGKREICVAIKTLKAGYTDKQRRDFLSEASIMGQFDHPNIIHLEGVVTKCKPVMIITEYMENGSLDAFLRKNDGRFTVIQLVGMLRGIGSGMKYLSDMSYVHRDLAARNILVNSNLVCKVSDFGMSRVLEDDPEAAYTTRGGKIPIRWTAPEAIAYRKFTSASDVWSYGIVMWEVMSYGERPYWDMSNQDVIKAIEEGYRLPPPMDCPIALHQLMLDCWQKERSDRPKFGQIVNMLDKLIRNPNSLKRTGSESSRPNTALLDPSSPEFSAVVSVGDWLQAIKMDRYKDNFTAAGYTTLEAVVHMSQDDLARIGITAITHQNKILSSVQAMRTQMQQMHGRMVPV
E3 ubiquitin-protein ligase XIAP, sequence (P98170 whole entry): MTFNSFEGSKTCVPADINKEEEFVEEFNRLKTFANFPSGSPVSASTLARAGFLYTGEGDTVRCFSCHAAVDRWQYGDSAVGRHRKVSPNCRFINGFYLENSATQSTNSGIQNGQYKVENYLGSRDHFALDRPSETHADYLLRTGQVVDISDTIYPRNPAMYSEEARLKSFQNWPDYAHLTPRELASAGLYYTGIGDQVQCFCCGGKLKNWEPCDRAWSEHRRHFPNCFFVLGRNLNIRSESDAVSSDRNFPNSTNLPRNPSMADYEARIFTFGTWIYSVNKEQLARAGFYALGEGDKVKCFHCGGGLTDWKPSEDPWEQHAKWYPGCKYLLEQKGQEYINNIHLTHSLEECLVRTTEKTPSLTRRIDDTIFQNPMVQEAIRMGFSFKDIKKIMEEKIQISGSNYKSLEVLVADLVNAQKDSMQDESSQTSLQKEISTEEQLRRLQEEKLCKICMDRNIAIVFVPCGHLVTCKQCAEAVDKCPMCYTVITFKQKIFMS
G-protein coupled receptor 55, sequence (Q9Y2T6 whole entry): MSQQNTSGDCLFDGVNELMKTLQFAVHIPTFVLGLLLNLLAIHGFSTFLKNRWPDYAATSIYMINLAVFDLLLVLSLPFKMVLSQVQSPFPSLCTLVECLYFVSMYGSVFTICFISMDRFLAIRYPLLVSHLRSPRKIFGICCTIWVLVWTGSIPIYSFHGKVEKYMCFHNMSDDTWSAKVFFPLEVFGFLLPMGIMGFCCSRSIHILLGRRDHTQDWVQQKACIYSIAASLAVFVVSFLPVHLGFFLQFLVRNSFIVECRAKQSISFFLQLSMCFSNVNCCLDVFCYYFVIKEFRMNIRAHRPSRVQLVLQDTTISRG

Row | Compound | IC50 [1] | IC50 (Ephrin type-A receptor 4) | EC50 [2] | IC50 [3] | CC50 [4] | CC50 [5]
1 | CCC(C)N1C(=O)/C(=C/c2c(NCCCOC(C)C)nc3c(C)cccn3c2=O)SC1=S (stereo unspecified) | > 20 µM (inactive) | 9.88 µM (active) | 532 nM (active) | > 80 µM (inactive) | – | –
2 | CC[C@]1(c2ccccc2C)C(=O)N(C(=O)OC)N1C(=O)OC | – | – | – | – | > 50 µM (inactive) | > 50 µM (inactive)
